Measurements published in ChEMBL document CHEMBL1201862, “PubChem BioAssay data set” (2004).
Active and inactive are the calls of the source.

Experiments:
[1] = OVCAR8 cell viability loss – plate reader, dry powder samples, PAX8 project, dose response (AID 743197); assay type: functional, cell-based; settings: OVCAR-8
[2] = target: Paired box protein Pax-8 (Homo sapiens, UniProt Q06710); assay: PAX8 transcriptional activity inhibition in RMG-I – RMG-I cells, luciferase, cherry-pick, dose response (AID 687027); assay type: functional, cell-based;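 note: luciferase reporter driven by Pax8 target thyroperoxidase promoter measured by SteadyGlo luminescence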
Chain of Paired box protein Pax-8 (Q06710 whole entry): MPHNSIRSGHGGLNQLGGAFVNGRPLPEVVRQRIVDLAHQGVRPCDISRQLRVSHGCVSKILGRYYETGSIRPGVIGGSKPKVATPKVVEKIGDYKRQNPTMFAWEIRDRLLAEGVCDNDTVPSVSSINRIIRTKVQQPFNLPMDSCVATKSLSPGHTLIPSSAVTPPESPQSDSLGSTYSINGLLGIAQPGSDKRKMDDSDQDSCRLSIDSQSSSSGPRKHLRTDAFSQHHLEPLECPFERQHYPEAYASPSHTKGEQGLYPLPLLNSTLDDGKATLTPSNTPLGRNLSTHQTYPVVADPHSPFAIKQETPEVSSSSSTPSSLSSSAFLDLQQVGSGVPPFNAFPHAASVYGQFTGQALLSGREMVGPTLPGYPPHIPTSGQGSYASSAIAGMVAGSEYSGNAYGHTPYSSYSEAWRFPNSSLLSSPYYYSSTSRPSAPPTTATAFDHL

[3] = viability of uninfected HEp-2 cells – cell-based, HTS, cytotoxicity control for RSV inhibitor project, dose response (AID 2410); assay type: functional; settings: human respiratory syncytial virus
[4] = cells
[5] = test system: Vero; assay: cells; assay type: functional, cell-based; settings: Chlorocebus sabaeus
[6] = Dd2 malaria parasite growth inhibition potency – SYBR Green, dry powder samples, dose response (AID 1159566); assay type: functional, cell-based;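 note: potency for growth inhibition with lower SYBR green DNA signal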
[7] = growth inhibition of yeast DHODH-expressing 3D7 parasites – SYBR Green, dry powder samples, dose response (AID 1159570); assay type: functional, cell-based;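 note: parasite growth measured after 72 hours of compound exposure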
[8] = P. falciparum Dd2 growth inhibitors, dose response, SYBR Green, cherry-picked samples (AID 1159567); assay type: functional, cell-based
[9] = toxicity to human HepG2 hepatoma cells – cell-based, plate reader, dry powder samples, cytotoxicity control, dose response (AID 1159569); assay type: functional;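 note: inhibitor potency with signal falling toward the positive control level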
[10] = growth inhibition of PfATP4-mutant resistant parasites – NITD609-resistant line, SYBR Green, dry powder, dose response (AID 1159571); assay type: functional, cell-based;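 note: parasites synchronized at ring stage by sorbitol before testing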
[11] = target: Endoplasmic reticulum aminopeptidase 1 (Homo sapiens, UniProt Q9NZ08); assay: inhibition of human ERAP1 enzyme activity – biochemical, cherry-pick, set 2, plate reader, dose response (AID 743314)
Chain of Endoplasmic reticulum aminopeptidase 1 (Q9NZ08 whole entry): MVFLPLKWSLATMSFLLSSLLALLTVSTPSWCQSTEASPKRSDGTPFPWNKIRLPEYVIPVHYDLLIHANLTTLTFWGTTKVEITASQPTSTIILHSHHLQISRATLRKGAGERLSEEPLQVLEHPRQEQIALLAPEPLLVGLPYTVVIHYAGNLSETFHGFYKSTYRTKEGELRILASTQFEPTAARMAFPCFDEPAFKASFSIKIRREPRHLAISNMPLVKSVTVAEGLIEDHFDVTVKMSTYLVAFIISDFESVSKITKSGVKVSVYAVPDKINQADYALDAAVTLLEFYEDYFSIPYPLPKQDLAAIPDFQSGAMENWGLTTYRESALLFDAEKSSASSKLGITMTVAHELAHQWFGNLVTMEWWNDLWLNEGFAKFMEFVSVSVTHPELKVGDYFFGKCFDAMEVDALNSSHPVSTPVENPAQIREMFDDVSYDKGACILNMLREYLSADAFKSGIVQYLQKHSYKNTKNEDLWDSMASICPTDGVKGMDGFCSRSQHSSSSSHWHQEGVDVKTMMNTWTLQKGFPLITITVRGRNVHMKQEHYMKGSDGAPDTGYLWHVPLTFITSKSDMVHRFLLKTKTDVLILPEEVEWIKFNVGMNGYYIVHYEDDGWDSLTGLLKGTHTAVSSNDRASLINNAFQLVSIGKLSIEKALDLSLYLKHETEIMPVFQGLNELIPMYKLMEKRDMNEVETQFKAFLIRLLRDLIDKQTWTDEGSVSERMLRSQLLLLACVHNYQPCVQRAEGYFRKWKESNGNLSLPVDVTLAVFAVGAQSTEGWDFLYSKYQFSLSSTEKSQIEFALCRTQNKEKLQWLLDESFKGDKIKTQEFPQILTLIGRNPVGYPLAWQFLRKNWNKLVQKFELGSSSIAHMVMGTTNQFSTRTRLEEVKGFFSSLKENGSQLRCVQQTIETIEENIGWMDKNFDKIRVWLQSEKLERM

[12] = target: Genome polyprotein (dengue virus type 2, UniProt P29990); assay: flavivirus cap methylation enzyme inhibition – biochemical, confirmation dose response, primary screen (AID 588689); assay type: functional
Chain of Genome polyprotein (P29990 2492-3391 limits assumed): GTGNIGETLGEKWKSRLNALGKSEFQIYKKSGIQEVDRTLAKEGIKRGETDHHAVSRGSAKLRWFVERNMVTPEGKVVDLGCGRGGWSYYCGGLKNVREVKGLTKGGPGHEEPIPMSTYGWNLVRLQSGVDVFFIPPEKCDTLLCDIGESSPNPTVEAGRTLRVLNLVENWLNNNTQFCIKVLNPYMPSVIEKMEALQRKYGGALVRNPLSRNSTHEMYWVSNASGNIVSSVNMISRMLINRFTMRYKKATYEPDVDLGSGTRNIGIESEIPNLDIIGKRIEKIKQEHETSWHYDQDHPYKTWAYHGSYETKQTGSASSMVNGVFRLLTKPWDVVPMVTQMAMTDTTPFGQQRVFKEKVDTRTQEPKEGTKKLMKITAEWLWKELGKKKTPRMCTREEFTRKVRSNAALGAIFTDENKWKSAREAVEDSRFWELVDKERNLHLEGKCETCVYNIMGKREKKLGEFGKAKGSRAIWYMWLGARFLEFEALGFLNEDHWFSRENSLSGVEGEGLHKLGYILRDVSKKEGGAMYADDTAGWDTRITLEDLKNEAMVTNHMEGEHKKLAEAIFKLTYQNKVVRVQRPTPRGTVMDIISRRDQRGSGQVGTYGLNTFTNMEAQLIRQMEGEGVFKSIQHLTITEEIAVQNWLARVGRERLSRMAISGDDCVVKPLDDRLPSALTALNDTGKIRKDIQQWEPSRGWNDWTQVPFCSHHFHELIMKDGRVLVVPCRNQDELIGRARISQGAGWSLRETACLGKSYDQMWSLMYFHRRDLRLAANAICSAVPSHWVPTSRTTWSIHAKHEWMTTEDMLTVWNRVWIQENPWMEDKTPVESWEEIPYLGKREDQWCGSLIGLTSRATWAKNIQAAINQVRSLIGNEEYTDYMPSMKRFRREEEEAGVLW

[13] = target: Neurotensin receptor type 1 (Homo sapiens, UniProt P30989); assay type: functional;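 note: Image-based confirmatory dose-response assay measuring agonist activity at NTR1; NTR1-expressing U2OS osteosarcoma cells imaged for beta-arrestin GFP spot formation; agonist potency where compounds increase beta-arrestin recruitment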
Chain of Neurotensin receptor type 1 (P30989 whole entry): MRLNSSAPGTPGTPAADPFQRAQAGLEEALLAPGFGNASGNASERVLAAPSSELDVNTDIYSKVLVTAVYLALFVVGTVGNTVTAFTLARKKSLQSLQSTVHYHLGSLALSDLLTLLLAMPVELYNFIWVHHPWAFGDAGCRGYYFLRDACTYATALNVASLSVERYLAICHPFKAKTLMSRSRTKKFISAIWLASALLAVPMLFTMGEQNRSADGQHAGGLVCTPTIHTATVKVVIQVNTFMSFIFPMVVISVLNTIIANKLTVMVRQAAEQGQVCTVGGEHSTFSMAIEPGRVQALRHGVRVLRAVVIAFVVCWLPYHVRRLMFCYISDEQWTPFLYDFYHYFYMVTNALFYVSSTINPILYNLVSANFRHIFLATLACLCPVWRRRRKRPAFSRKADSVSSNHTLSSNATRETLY

[14] = target: T1, Rac GTPase-activating protein 1 (Homo sapiens, UniProt Q9H0H5); assay: blockers of MgcRacGAP-driven Rac1 GTP hydrolysis – biochemical, ADP Hunter fluorescence, primary and confirmatory, confirmation (AID 624330); assay type: functional
T1 sequence (Q9H0H5 whole entry): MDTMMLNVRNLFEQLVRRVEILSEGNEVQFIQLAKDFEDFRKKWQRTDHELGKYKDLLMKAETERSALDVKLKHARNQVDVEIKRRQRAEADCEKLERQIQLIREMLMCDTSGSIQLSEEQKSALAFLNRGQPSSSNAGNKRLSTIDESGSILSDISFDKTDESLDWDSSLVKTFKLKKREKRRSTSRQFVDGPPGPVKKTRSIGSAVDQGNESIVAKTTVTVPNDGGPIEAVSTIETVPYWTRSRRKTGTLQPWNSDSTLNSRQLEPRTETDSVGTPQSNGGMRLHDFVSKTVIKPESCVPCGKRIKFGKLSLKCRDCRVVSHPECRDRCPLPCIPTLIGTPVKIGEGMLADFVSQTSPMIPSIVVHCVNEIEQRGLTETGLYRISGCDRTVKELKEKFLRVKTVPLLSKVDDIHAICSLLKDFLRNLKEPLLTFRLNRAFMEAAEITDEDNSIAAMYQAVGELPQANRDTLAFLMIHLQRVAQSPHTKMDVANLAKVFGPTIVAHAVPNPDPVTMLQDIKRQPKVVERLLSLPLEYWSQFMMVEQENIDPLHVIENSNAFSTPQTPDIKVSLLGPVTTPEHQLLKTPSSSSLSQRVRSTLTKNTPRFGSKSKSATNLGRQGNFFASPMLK

[15] = Luminescence Cell-Based Dose Retest to Confirm Inhibitors of Cancer Stem Cells. [Related pubchem assays (depositor defined):AID2717, AID2721]; assay type: functional; settings: Homo sapiens
[16] = test system: INS1; assay: INS-1E survival protection against cytokine death – cell-based, luminescence, retest, dose response (AID 449756); assay type: functional; settings: Rattus norvegicus;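 note: cell death triggered by IL-1 beta plus TNF-alpha plus IFN-gamma mixture; protective hits raise ATP signal compared with cytokine alone wells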
[17] = target: T2, Dual specificity protein phosphatase 6 (Rattus norvegicus, UniProt Q64346); assay: inhibition of rat DUSP6 enzyme activity – biochemical, in vitro, primary screen (AID 425)
T2 sequence (Q64346 whole entry): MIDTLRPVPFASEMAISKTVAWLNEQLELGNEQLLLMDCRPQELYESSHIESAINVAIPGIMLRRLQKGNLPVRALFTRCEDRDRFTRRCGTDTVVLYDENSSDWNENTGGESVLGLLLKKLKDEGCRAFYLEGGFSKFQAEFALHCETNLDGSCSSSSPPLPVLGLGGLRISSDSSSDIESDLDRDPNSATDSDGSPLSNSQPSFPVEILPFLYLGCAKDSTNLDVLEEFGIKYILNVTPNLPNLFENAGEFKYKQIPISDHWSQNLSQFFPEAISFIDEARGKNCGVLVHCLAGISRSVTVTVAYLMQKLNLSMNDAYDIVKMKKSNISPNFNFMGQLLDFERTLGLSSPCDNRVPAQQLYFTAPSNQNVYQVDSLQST

[18] = test system: HeLa; assay: viability loss in HeLa cells – cell-based, 24 h, cherry-picked samples, cytotoxicity control, dose response (AID 504726); assay type: functional; settings: Homo sapiens;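 note: potency for cytotoxicity as loss of luminescence signal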
[19] = reduction of Shn3 3'UTR-driven luciferase in osteoblasts – cell-based, Clone20 osteoblasts, firefly luciferase, cherry-picked, dose response (AID 624132); assay type: functional;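 note: firefly luciferase luminescence from reporter carrying the Shn3 3'UTR in osteoblasts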
[20] = target: T3, COUP transcription factor 2 (Homo sapiens, UniProt P24468); assay: Luminescence-based cell-based high throughput dose response assay to identify inhibitors of COUP-TFII (NR2F2).; assay type: functional;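 note: HEK293 cells transiently cotransfected with COUP-TFII expression vector and reporter; luciferase reporter luminescence driven by COUP-TFII from the pX2-168 reporter plasmid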
T3 sequence (P24468 whole entry): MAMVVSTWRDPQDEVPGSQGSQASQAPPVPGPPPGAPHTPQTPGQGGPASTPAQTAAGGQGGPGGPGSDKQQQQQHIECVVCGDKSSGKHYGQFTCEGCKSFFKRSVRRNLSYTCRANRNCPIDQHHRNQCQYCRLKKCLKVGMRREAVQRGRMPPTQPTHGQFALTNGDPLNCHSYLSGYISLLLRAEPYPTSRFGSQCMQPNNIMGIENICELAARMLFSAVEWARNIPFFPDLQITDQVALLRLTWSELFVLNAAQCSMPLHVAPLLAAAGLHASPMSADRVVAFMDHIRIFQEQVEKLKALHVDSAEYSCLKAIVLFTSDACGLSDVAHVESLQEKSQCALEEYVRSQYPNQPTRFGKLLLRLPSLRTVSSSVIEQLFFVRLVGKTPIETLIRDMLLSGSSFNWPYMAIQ

[21] = test system: P388/ADR; assay: cells; assay type: functional; settings: Mus musculus
[22] = non-specific 3'UTR reporter inhibition in Clone20-Shn3RL – cell-based, Renilla luciferase, cherry-picked, counter-screen for Shn3 inhibitor project, dose response (AID 624133); assay type: functional
[23] = test system: P388; assay: cells; assay type: functional; settings: Mus musculus
[24] = target: T4, Protein skinhead-1 (Caenorhabditis elegans, UniProt P34707); assay type: functional
T4 sequence (P34707 whole entry): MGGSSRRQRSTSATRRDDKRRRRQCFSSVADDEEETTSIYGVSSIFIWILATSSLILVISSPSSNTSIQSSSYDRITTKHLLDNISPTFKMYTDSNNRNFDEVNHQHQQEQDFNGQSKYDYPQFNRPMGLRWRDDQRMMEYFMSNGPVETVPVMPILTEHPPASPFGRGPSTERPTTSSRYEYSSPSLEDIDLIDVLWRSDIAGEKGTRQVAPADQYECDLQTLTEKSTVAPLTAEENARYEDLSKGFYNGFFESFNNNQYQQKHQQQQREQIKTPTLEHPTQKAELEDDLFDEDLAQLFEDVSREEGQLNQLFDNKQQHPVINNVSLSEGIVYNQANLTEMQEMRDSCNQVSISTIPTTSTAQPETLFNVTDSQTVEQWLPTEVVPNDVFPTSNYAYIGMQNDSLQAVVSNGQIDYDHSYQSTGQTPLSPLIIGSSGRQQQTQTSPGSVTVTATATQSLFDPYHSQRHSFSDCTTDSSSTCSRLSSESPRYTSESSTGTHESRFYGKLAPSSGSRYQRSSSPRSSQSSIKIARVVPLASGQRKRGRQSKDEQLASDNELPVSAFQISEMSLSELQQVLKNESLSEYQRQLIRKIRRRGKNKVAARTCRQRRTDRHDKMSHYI

[25] = test system: SN12K1; assay: cells; assay type: functional; settings: Homo sapiens
[26] = microbe, parasite or virus in culture; assay type: functional; settings: Mycobacterium tuberculosis
[27] = target: T5, DNA repair protein RAD52 homolog (Homo sapiens, UniProt P43351); assay type: functional, biochemical
T5 sequence (P43351 whole entry): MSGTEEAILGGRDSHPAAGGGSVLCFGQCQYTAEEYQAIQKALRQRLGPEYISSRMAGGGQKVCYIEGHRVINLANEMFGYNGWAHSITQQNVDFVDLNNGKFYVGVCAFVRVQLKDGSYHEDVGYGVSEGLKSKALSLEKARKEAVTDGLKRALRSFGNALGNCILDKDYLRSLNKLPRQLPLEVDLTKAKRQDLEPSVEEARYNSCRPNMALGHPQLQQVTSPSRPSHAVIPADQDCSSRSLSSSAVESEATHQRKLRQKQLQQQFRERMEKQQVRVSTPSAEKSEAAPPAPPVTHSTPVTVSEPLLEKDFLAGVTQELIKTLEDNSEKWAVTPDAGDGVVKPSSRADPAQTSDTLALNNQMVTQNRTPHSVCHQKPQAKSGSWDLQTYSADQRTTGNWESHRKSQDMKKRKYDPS

[28] = fluconazole-exposed Candida albicans growth modulators – fluorescence, retest, confirmation (AID 2467); assay type: functional, cell-based
[29] = NIH-3T3 fibroblast cytotoxicity, dose response, cytotoxicity control, cell-based, fluorescence, Alamar Blue, secondary assay (AID 2327); assay type: functional;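 note: NIH-3T3 mouse fibroblasts cultured with fluconazole at 8 µg/mL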
[30] = Luminescence-based cell-based high throughput dose response assay to identify activators of the DAF-12 from the parasite S. stercoralis (ssDAF-12).; assay type: functional
[31] = Luminescence Cell-Based Dose Confirmation HTS to Identify Inhibitors of Platelet Dense Granule Release. [Related pubchem assays: 1663 (Primary HTS), 1678 (Summary of Project)]; assay type: functional
[32] = target: Luciferin 4-monooxygenase (Photinus pyralis, UniProt P08659); assay: inhibition of purified Photinus pyralis luciferase – biochemical, luminescence, dose response (AID 1891)
Chain of Luciferin 4-monooxygenase (P08659 whole entry): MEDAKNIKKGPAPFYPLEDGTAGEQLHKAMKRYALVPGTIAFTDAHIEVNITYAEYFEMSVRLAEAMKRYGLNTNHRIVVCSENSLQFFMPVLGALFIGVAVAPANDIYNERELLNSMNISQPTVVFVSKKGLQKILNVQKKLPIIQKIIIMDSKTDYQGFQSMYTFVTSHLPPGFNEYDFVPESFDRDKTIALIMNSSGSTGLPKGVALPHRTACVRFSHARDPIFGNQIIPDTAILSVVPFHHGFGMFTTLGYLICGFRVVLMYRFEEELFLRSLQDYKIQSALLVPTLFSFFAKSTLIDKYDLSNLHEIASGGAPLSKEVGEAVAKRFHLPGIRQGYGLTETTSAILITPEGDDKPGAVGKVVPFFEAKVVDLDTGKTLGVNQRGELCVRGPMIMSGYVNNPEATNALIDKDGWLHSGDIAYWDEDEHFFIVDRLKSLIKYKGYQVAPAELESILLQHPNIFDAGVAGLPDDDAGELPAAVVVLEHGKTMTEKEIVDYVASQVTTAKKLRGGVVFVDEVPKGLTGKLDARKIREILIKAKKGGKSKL

Cc1cc(C(=O)Nc2cccc3c2O[C@H](CN(C)Cc2ccc(Oc4ccccc4)cc2)[C@@H](C)CN([C@H](C)CO)C3=O)n(C)n1
AC50 [1]: > 70 µM (inactive)
AC50 [2]: 13.2 µM (active)

O=C(CCNC(=O)c1ccc(Br)cc1)NC1CCCc2ccccc21 (stereo unspecified)
CC50 [3]: 43.7 µM (active)
IC50 [4]: 6.76 µM (active)
IC50 [5]: 9.27 µM (active)

C[C@H](CO)N1C[C@H](C)[C@H](CN(C)C(=O)Nc2cc(F)ccc2F)Oc2cc(/C=C/c3ccccc3)ccc2S1(=O)=O
AC50 [6]: 0.962 µM (active)
AC50 [7]: 2.62 µM (active)
AC50 [8]: 1.77 µM (active)
AC50 [9]: 86.7 µM (active)
AC50 [10]: 2.06 µM (active)

CC(=O)N1[C@@H]2c3ccc(/C=C/c4ccccc4)c(=O)n3C[C@H]1[C@H](CO)[C@H]2C(=O)N1CCOCC1
AC50 [11]: 3.12 µM (active)

CC1(C)CC(=O)C(C(C2=C(O)CC(C)(C)CC2=O)c2ccc(Br)s2)C(=O)C1 (stereo unspecified)
IC50 [12]: 21.5 µM (active)
EC50 [13]: 19.6 µM (active)
IC50 [14]: 61.5 µM (active)

CCCCNc1c(-c2ccc(OC)c(SC(C)CC)c2)nc2ccc(C)cn12 (stereo unspecified)
AC50 [15]: 6.87 µM (active)
EC50 [13]: 15.4 µM (active)
AC50 [16]: 4.34 µM (active)

COc1ccc(Cc2nn3c(-c4cc(OC)c(OC)c(OC)c4)nnc3s2)cc1
IC50 [17]: > 100 µM (not active)

Cc1ccc(/C=C/S(=O)(=O)N2CCC(C(=O)O)CC2)cc1
AC50 [18]: > 350 µM (inactive)

COC(=O)C12OCC34C(CC5C(C)=C(O)C(=O)CC5(C)C3C(O)C1O)OC(=O)C(OC(=O)C=C(C)C)C24 (stereo unspecified)
AC50 [19]: < 0.26 µM (active)
IC50 [20]: 0.0223 µM (active)
GI50 [21]: > 500 µM (inactive)
AC50 [2]: < 0.26 µM (active)
AC50 [22]: 0.687 µM (active)
GI50 [23]: > 500 µM (inactive)
IC50 [24]: 35.7 µM (active)
GI50 [25]: 277 µM (inactive)

N#Cc1c(N2CCNCC2)nc(-c2ccco2)c2c1CCCC2
AC50 [11]: 6.11 µM (active)

N#C[C@H]1[C@@H](c2ccc(C#Cc3ccccc3F)cc2)[C@@H](CO)N1C(=O)C1CCC1
AC50 [6]: 0.613 µM (active)
AC50 [7]: 0.779 µM (active)
AC50 [8]: 1.57 µM (active)
AC50 [9]: 44.9 µM (active)
AC50 [10]: 1.04 µM (active)

Oc1ccc(-[n+]2c(-c3ccccc3)cc(-c3ccccc3)cc2-c2ccccc2)cc1.[O-][Cl+3]([O-])([O-])[O-]
IC50 [20]: 9.1 µM (active)
CC50 [26]: 9.19 µM (active)
AC50 [27]: 9.88 µM (active)
EC50 [28]: 0.879 µM (active)
AC50 [16]: 3.38 µM (active)
EC50 [29]: > 160 µM (inactive)

COc1cccc(CN2CCCCN3[C@H](CO)[C@@H](c4ccc(C#Cc5cccnc5)cc4)[C@@H]3C2)c1
AC50 [6]: 0.427 µM (active)
AC50 [7]: 2.2 µM (active)
AC50 [8]: 1.34 µM (active)
AC50 [9]: 22.7 µM (active)
AC50 [10]: 1.21 µM (active)

Cc1ccc(NC(=O)CN(C)C(=O)CSc2nc3ccccc3c(=O)n2Cc2ccco2)cc1
CC50 [3]: 36.7 µM (active)
IC50 [4]: 44.3 µM (active)

O=C(/C=C/Nc1ccccc1F)c1cccs1
IC50 [30]: > 67.6 µM (inactive)
EC50 [31]: 4.56 µM (active)
EC50 [32]: 0.641 µM (active)
IC50 [24]: 14.7 µM (active)

CN(C)Cc1c(O)ccc2cc(-c3nc4ccccc4n3C)c(=O)oc12
AC50 [11]: 1.56 µM (active)
